In patent US10093644B2, “3-[(Benzo[D][1,3]dioxolan-4-yl)-oxy]-3-arylpropylamine type compounds and applications thereof” (NHWA PHARMA. CORPORATION, priority 2014, dated 2018):
Where “and” joins values, the source holds several entries; their conditions need not be identical. Equal values may be shown once. Read-outs that look alike come from different tables or passages of the source.

Tests used:
[1] = Acid stability evaluation in diluted hydrochloric acid; format: physicochemical; settings: 0.1 mol/L hydrochloric acid
Protocol: The compound according to the invention was incubated in diluted hydrochloric acid (0.1 mol/L) at 37° C. for 2 h to test the decomposition of the compound (shown as %) and the results were shown as follows.

mice [2] = assay: Mice forced swimming test (acquired despair experiment); format: in vivo; settings: for immobilized time of mice swimming: i.g. (gavage); for ED50: Mus musculus, read-out: swimming ED50
mice [3] = assay: Mice tail suspension test (acquired despair experiment); format: in vivo; settings: for immobilized time of mice tail suspension: i.g. (gavage); for ED50: Mus musculus, read-out: tail suspension ED50
[4] = Therapeutic index evaluation (LD50/ED50); format: in vivo; settings: for therapeutic index (swimming): LD50/ED50, swimming ED50; for therapeutic index (tail suspension): LD50/ED50, tail suspension ED50; for LD50: half lethal dose

CNCCC(Oc1cccc2c1OCO2)c1ccc(F)cc1.O=C(O)C(=O)O (centres unmarked) [compound 4, 3-[(benzo[d][1,3]dioxolan-4-yl)-oxy]-3-(4-fluorophenyl)-N-methylpropylamine oxalate]
ratio of the compound after incubation in diluted hydrochloric acid at 37° C. for 2 h [1]: 99% | immobilized time of mice swimming (mice [2]; 5 mg/kg, oxalate form): 74.1 ± 36.8 s | immobilized time of mice swimming (mice [2]; 10 mg/kg, oxalate form): 60.1 ± 42.2 s | immobilized time of mice tail suspension (mice [3]; 5 mg/kg, oxalate form): 21.4 ± 12.8 s | immobilized time of mice tail suspension (mice [3]; 10 mg/kg, oxalate form): 29.6 ± 13.1 s

CNCCC(Oc1cccc2c1OCO2)c1cccs1 (centres unmarked) [ammuxetine, reference compound]
ratio of the compound after incubation in diluted hydrochloric acid at 37° C. for 2 h [1]: 44% | swimming ED50 (mice [2]; half effective dose): 2.58 mg/kg | tail suspension ED50 (mice [3]; half effective dose): 3.89 mg/kg | therapeutic index (swimming) [4]: 68.9 | therapeutic index (tail suspension) [4]: 45.7 | LD50 [4]: 177.8 mg/kg

CNCCC(Oc1cccc2c1OCO2)c1ccccc1.O=C(O)C(=O)O (centres unmarked) [compound 2, 3-[(benzo[d][1,3]dioxolan-4-yl)-oxy]-N-methyl-3-phenylpropylamine oxalate]
ratio of the compound after incubation in diluted hydrochloric acid at 37° C. for 2 h [1]: 99% | immobilized time of mice swimming (mice [2]; 5 mg/kg, oxalate form): 38.9 ± 34.5 s | immobilized time of mice swimming (mice [2]; 10 mg/kg, oxalate form): 28.6 ± 19.3 s | ED50 (mice [2]; half effective dose): 2 mg/kg | immobilized time of mice tail suspension (mice [3]; 5 mg/kg, oxalate form): 44.3 ± 34.5 s | immobilized time of mice tail suspension (mice [3]; 10 mg/kg, oxalate form): 8.2 ± 13.7 s | ED50 (mice [3]; half effective dose): 7.06 mg/kg | therapeutic index (swimming) [4]: 88.8 | therapeutic index (tail suspension) [4]: 25.2 | LD50 ([4]; in vivo, read-out: LD50): 178 mg/kg

CNCCC(Oc1cccc2c1OCO2)c1cccc(OC)c1.O=C(O)C(=O)O (centres unmarked) [compound 12, 3-[(benzo[d][1,3]dioxolan-4-yl)-oxy]-3-(3-methoxylphenyl)-N-methylpropylamine oxalate]
ratio of the compound after incubation in diluted hydrochloric acid at 37° C. for 2 h [1]: 99% | immobilized time of mice swimming (mice [2]; 5 mg/kg, oxalate form): 92.0 ± 45.5 s | immobilized time of mice swimming (mice [2]; 10 mg/kg, oxalate form): 58.2 ± 45.3 s | ED50 (mice [2]; half effective dose): 5.28 mg/kg | immobilized time of mice tail suspension (mice [3]; 5 mg/kg, oxalate form): 64.1 ± 24.5 s | immobilized time of mice tail suspension (mice [3]; 10 mg/kg, oxalate form): 33.0 ± 15.6 s | ED50 (mice [3]; half effective dose): 8.57 mg/kg | therapeutic index (swimming) [4]: 60.7 | therapeutic index (tail suspension) [4]: 37.4 | LD50 ([4]; in vivo, read-out: LD50): 320 mg/kg

CN(C)CCC(Oc1cccc2c1OCO2)c1ccc(F)cc1.O=C(O)C(=O)O (centres unmarked) [compound 3, 3-[(benzo[d][1,3]dioxolan-4-yl)-oxy]-3-(4-fluorophenyl)-N,N-dimethylpropylamine oxalate]
ratio of the compound after incubation in diluted hydrochloric acid at 37° C. for 2 h [1]: 99% | immobilized time of mice swimming (mice [2]; 5 mg/kg, oxalate form): 42.0 ± 56.1 s | immobilized time of mice swimming (mice [2]; 10 mg/kg, oxalate form): 31.0 ± 54.2 s | ED50 (mice [2]; half effective dose): 2.28 mg/kg | immobilized time of mice tail suspension (mice [3]; 5 mg/kg, oxalate form): 22.0 ± 28.2 s | immobilized time of mice tail suspension (mice [3]; 10 mg/kg, oxalate form): 9.2 ± 13.3 s | ED50 (mice [3]; half effective dose): 4.32 mg/kg | therapeutic index (swimming) [4]: 155.6 | therapeutic index (tail suspension) [4]: 82.2 | LD50 ([4]; in vivo, read-out: LD50): 355 mg/kg

Cc1cccc(C(CCN(C)C)Oc2cccc3c2OCO3)c1.O=C(O)C(=O)O (centres unmarked) [compound 13, 3-[(benzo[d][1,3]dioxolan-4-yl)-oxy]-3-(3-methylphenyl)-N,N-dimethylpropylamine oxalate]
ratio of the compound after incubation in diluted hydrochloric acid at 37° C. for 2 h [1]: 99% | immobilized time of mice swimming (mice [2]; 5 mg/kg, oxalate form): 87.9 ± 55.6 s | immobilized time of mice swimming (mice [2]; 10 mg/kg, oxalate form): 60.2 ± 38.6 s | immobilized time of mice tail suspension (mice [3]; 5 mg/kg, oxalate form): 71.3 ± 32.7 s | immobilized time of mice tail suspension (mice [3]; 10 mg/kg, oxalate form): 29.8 ± 21.3 s

CNCC[C@H](Oc1cccc2ccccc12)c1cccs1 [duloxetine, reference compound]
ratio of the compound after incubation in diluted hydrochloric acid at 37° C. for 2 h [1]: 18% | immobilized time of mice swimming (mice [2]; 10 mg/kg, oxalate form): 76.0 ± 57.8 s | immobilized time of mice swimming (mice [2]; 20 mg/kg): 41.2 ± 33.3 s | ED50 (mice [2]): 4.94 mg/kg | immobilized time of mice tail suspension (mice [3]; 10 mg/kg, oxalate form): 34.7 ± 42.3 s | immobilized time of mice tail suspension (mice [3]; 20 mg/kg): 17.8 ± 18.5 s | ED50 (mice [3]): 5.96 mg/kg | therapeutic index (swimming) [4]: 98.8 and 98.9 | therapeutic index (tail suspension) [4]: 82.1 | LD50 ([4]; in vivo, read-out: LD50): 489 mg/kg
